Results published in the supplement of paper PMC10307832.

Legend:
Test in all cases: relative viability (nuclei count vs DMSO), 5 days (fraction); higher = more cells survive
[1] = compound: C[C@@H](Oc1cc(-c2cnn(C3CCNCC3)c2)cnc1N)c1c(Cl)ccc(F)c1Cl [Crizotinib] + CS(=O)(=O)CCNCc1ccc(-c2ccc3ncnc(Nc4ccc(OCc5cccc(F)c5)c(Cl)c4)c3c2)o1 [Lapatinib] (partner 2 µM)
Summary of the method: (§1)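 Lung cancer cell lines were pin-tool dosed in 1536-well plates on the day after seeding, with either a lone drug or a fixed anchor-drug dose plus five library-drug doses (not always all listed) in √10 steps. Nuclei were counted on 4× images after 5 days. Relative viability is the ratio of treated-well to vehicle-well nuclei counts, with each value a median of duplicate plates.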

[2] = compound: C[C@@H](Oc1cc(-c2cnn(C3CCNCC3)c2)cnc1N)c1c(Cl)ccc(F)c1Cl [Crizotinib] + Cc1nc(Nc2ncc(C(=O)Nc3c(C)cccc3Cl)s2)cc(N2CCN(CCO)CC2)n1 [Dasatinib] (partner 0.075 µM)
Summary of the method: as §1

[3] = compound: C[C@@H](Oc1cc(-c2cnn(C3CCNCC3)c2)cnc1N)c1c(Cl)ccc(F)c1Cl [Crizotinib] + COc1cccc2cc(-c3nc([C@H]4CC[C@H](C(=O)O)CC4)n4ncnc(N)c34)[nH]c12 [OSI-027] (partner 0.5 µM)
Summary of the method: as §1

[4] = compound: O=C(c1cc(Cc2n[nH]c(=O)c3ccccc23)ccc1F)N1CCN(C(=O)C2CC2)CC1 [Olaparib] + C[C@]1(O)C[C@@H](c2nc(-c3ccc4ccc(-c5ccccc5)nc4c3)c3c(N)nccn32)C1 [Linsitinib] (partner 1 µM)
Summary of the method: as §1

[5] = compound: C[C@@H](Oc1cc(-c2cnn(C3CCNCC3)c2)cnc1N)c1c(Cl)ccc(F)c1Cl [Crizotinib] + CC1(C)CCC(c2ccc(Cl)cc2)=C(CN2CCN(c3ccc(C(=O)NS(=O)(=O)c4ccc(N[C@H](CCN5CCOCC5)CSc5ccccc5)c(S(=O)(=O)C(F)(F)F)c4)cc3)CC2)C1 [Navitoclax] (partner 0.5 µM)
Summary of the method: as §1

## NCI-H1793
[1]; first compound 0.01 µM
  relative viability: 0.68
[1]; first compound 0.03162 µM
  relative viability: 0.737
[1]; first compound 0.1 µM
  relative viability: 0.749
[1]; first compound 1 µM
  relative viability: 0.802
[2]; first compound 0.03162 µM
  relative viability: 0.401
[2]; first compound 0.1 µM
  relative viability: 0.382
[2]; first compound 1 µM
  relative viability: 0.369
[3]; first compound 0.03162 µM
  relative viability: 0.256
[3]; first compound 0.1 µM
  relative viability: 0.278
[3]; first compound 1 µM
  relative viability: 0.266
[4]; first compound 0.08 µM
  relative viability: 0.862
[4]; first compound 0.253 µM
  relative viability: 0.738
[4]; first compound 2.53 µM
  relative viability: 0.942
[4]; first compound 8 µM
  relative viability: 0.655
[5]; first compound 0.01 µM
  relative viability: 0.362
[5]; first compound 0.03162 µM
  relative viability: 0.486
[5]; first compound 0.1 µM
  relative viability: 0.384
[5]; first compound 1 µM
  relative viability: 0.529
